Assay results taken from US20100168175A1, “ATPENINS” (priority 2008, published 2010).
Where two headings read alike, the source gives them in different places.

How the values were obtained:
[1] = log P by HPLC on a reversed-phase column (C18), EEC Directive 79/831 Annex V.A8; type: physicochemical; conditions: reversed-phase HPLC column (Kromasil 100 C18), H3PO4
Protocol: The stated log P values were determined in accordance with EEC Directive 79/831 Annex V.A8 by HPLC (High Performance Liquid Chromatography) on a reversed-phase column (C18).
HP1100 LC System (UV/DAD); Kromasil 100 C18, 3.5 μm, 75×2.0 mm; mobile phase A: acetonitrile (0.1% formic acid); mobile phase B: water (0.09% formic acid); linear gradient from 10% acetonitrile to 95% acetonitrile over 8.5 min, then 95% acetonitrile for a further 3.5 min; oven temperature 43° C.; flow rate: 0.5 ml/min
HP1100 LC System (UV/DAD); Kromasil 100 C18, 3.5 μm, 70×3.1 mm; mobile phase A: acetonitrile (0.1% phosphoric acid); mobile phase B: water (0.1% phosphoric acid); linear gradient from 10% acetonitrile to 95% acetonitrile over 8.5 min, then 95% acetonitrile for a further 3 min; oven temperature 43° C.; flow rate: 1 ml/min

Phytophthora infestans = assay: whole plant or invertebrate; type: in vivo; conditions: in Solanum lycopersicum, 168 h, read-out: Efficacy in %
Alternaria solani = assay: Alternaria test (tomato)/protective; type: in vivo; conditions: young tomato plants, protective spray, application rate 500 (in ppm g/ha [sic]), evaluation 7 days after inoculation; 0% = control, 100% = no infection
Sphaerotheca fuliginea = assay: Sphaerotheca test (cucumber)/protective; type: in vivo; conditions: Podosphaera fuliginea, 168 h, read-out: Efficacy in %
[2] = young cucumber plants, protective spray, application rate 100 g/ha, evaluation 7 days after inoculation, 0% = control, 100% = no infection

SMILES	pest or weed control at 500 ppm (Phytophthora infestans) [%]	Efficacy in % (Alternaria solani) [%]	further results
COc1ccc(Cn2c(OC)c(OC)c(O)c(C(=O)CCc3ccc(Oc4ccc(Cl)cc4)cc3)c2=O)cc1 [Compound I-89]	50	–	chromatographic logP [1]: 5.75
COc1[nH]c(=O)c(C(=O)C2CC2)c(O)c1OC [Compound I-130]	56	–	–
COc1[nH]c(=O)c(C(=O)C(C)CCC(C)C)c(O)c1OC (stereo not drawn) [Compound I-153]	–	90	–
COc1ccc(Cn2c(O)c(OC)c(O)c(C(=O)C3CCCCCC3)c2=O)cc1 [Compound I-111]	89	–	–
COc1ccc(Cn2c(OC)c(OC)c(O)c(C(=O)Cc3ccc(Br)cc3)c2=O)cc1 [Compound I-107]	78	–	–
COc1[nH]c(=O)c(C(=O)c2ccc3ccccc3c2)c(O)c1OC [Compound I-221]	80	93	–
COc1c(O)c(C(=O)C(C)C)c(=O)n(Cc2ccccc2)c1OC [Compound I-108]	–	67	–
CCCC(C)c1ccccc1NC(=O)c1c(O)c(OC)c(OC)[nH]c1=O (stereo not drawn) [Compound I-139]	60	–	–
COc1ccc(Cn2c(O)c(OC)c(O)c(C(=O)C3CCC(C)CC3)c2=O)cc1 (stereo not drawn) [Compound I-101]	78	–	–
COc1[nH]c(=O)c(C(=O)C(C)CC(C)Cc2ccccc2)c(O)c1OC (stereo not drawn) [Compound I-160]	–	70	–
CCC(C)CC(C)C(=O)c1c(O)c(OC)c(OC)[nH]c1=O (stereo not drawn) [Compound I-219]	–	50	–
CCCCCC(C)C(=O)c1c(O)c(OC)c(O)n(Cc2ccc(OC)cc2)c1=O (stereo not drawn) [Compound I-178, 4,6-Dihydroxy-5-methoxy-1-(4-methoxybenzyl)-3-(2-methylheptanoyl)pyridin-2(1H)-one]	60	–	–
CCCCCCC(CCCC)C(=O)c1c(O)c(OC)c(OC)[nH]c1=O (stereo not drawn) [Compound I-212]	–	71	–
COc1ccc(Cn2c(OC)c(OC)c(O)c(C(=O)C(C)Cc3c(Cl)cccc3Cl)c2=O)cc1 (stereo not drawn) [Compound I-172, 3-[3-(2,6-Dichlorophenyl)-2-methylpropanoyl]-4-hydroxy-5,6-dimethoxy-1-(4-methoxybenzyl)pyridin-2(1H)-one]	71	–	–
CCCC1CCC(C(=O)c2c(O)c(OC)c(OC)n(Cc3ccc(OC)cc3)c2=O)CC1 (stereo not drawn) [Compound I-184]	–	56	–
COc1[nH]c(=O)c(C(=O)C(C)CCC(C)(C)C)c(O)c1OC (stereo not drawn) [Compound I-228]	–	80	–
CCCC(C)C(=O)c1c(O)c(OC)c(OC)[nH]c1=O (stereo not drawn) [Compound I-129]	56	–	pest or weed control at 100 g/ha (Sphaerotheca fuliginea): 98%
COc1[nH]c(=O)c(C(=O)CCc2ccccc2C)c(O)c1OC [Compound I-72]	–	50	–
COc1[nH]c(=O)c(C(=O)C(C)CCCc2ccccc2)c(O)c1OC (stereo not drawn) [Compound I-158]	60	50	–
C/C=C/CC(C)C(=O)c1c(O)c(OC)c(OC)[nH]c1=O (stereo not drawn) [Compound I-1, 4-Hydroxy-5,6-dimethoxy-3-[(4E)-2-methylhex-4-enoyl]pyridin-2(1H)-one]	0	0	pest or weed control at 100 g/ha (Sphaerotheca fuliginea): 77%
COc1[nH]c(=O)c(C(=O)C(C)CC(C)C)c(O)c1OC (stereo not drawn) [Compound I-138, 3-(2,4-Dimethylpentanoyl)-4-hydroxy-5,6-dimethoxypyridin-2(1H)-one]	–	–	pest or weed control at 100 g/ha (Sphaerotheca fuliginea; [2]): 96%

SMILES	pest or weed control at 500 ppm (Phytophthora infestans) [%]	Efficacy in % (Alternaria solani) [%]	further results
COc1[nH]c(=O)c(C(=O)C(C)CC2CCC(C(C)C)CC2)c(O)c1OC (stereo not drawn) [Compound I-164]	–	90	chromatographic logP [1]: 5.41
COc1ccc(Cn2c(OC)c(OC)c(O)c(C(=O)C3CC=CCC3)c2=O)c(OC)c1 (stereo not drawn) [Compound I-110]	78	–	–
COc1ccc(Cn2c(OC)c(OC)c(O)c(C(=O)C(C)C/C=C\COCc3ccccc3)c2=O)cc1 (stereo not drawn) [Compound I-157]	–	50	–
COc1ccc(Cn2c(OC)c(OC)c(O)c(C(C)=O)c2=O)c(OC)c1 [Compound I-66]	–	94	–
CCC(CC)CC(C)C(=O)c1c(O)c(OC)c(OC)[nH]c1=O (stereo not drawn) [Compound I-74]	–	–	pest or weed control at 100 g/ha (Sphaerotheca fuliginea): 100%
CCCCC(C)C(=O)c1c(O)c(OC)c(OC)[nH]c1=O (stereo not drawn) [Compound I-230]	–	70	pest or weed control at 100 g/ha (Sphaerotheca fuliginea): 98%
COc1ccc(Cn2c(O)c(OC)c(O)c(C(=O)C(C)CC(F)(F)F)c2=O)cc1 (stereo not drawn) [Compound I-180]	50	–	–
COc1[nH]c(=O)c(C(=O)C(C)c2ccc(Cl)cc2)c(O)c1OC (stereo not drawn) [Compound I-204]	–	–	pest or weed control at 100 g/ha (Sphaerotheca fuliginea; [2]): 85%
COc1ccc(Cn2c(OC)c(OC)c(O)c(C(=O)c3ccc(C)cc3)c2=O)cc1 [Compound I-49]	50	–	–
COc1[nH]c(=O)c(C(=O)C(C)Cc2ccc(C(F)(F)F)cc2)c(O)c1OC (stereo not drawn) [Compound I-141]	70	80	–
COc1ccc(Cn2c(OC)c(OC)c(O)c(C(=O)Nc3ccc(-c4ccccc4)cc3)c2=O)cc1 [Compound I-75]	–	70	–
COc1[nH]c(=O)c(C(=O)C(C)CC(F)(F)F)c(O)c1OC (stereo not drawn) [Compound I-197]	–	–	pest or weed control at 100 g/ha (Sphaerotheca fuliginea; [2]): 100%
COc1[nH]c(=O)c(C(=O)c2ccc(C)cc2)c(O)c1OC [Compound I-55]	56	–	–
COc1[nH]c(=O)c(C(=O)C(C)CCC2CCCC2)c(O)c1OC (stereo not drawn) [Compound I-240]	–	–	pest or weed control at 100 g/ha (Sphaerotheca fuliginea; [2]): 98%
COc1ccc(Cn2c(O)c(OC)c(O)c(C(=O)C3CCCC3)c2=O)c(OC)c1 [Compound I-69]	50	–	–
COc1[nH]c(=O)c(C(=O)c2ccc(Cl)cc2)c(O)c1OC [Compound I-122]	56	–	–
CCC(=O)c1c(O)c(OC)c(OC)n(Cc2ccc(OC)cc2)c1=O [Compound I-48, 4-Hydroxy-5,6-dimethoxy-1-(4-methoxybenzyl)-3-propanoylpyridin-2(1H)-one]	63	57	–
COc1[nH]c(=O)c(C(=O)C(C)C2CCCCC2)c(O)c1OC (stereo not drawn) [Compound I-149]	–	80	–
COc1ccc(Cn2c(OC)c(OC)c(O)c(C(=O)CCCCc3ccccc3)c2=O)cc1 [Compound I-28]	50	–	–
COc1[nH]c(=O)c(C(=O)C2CCC(C)CC2)c(O)c1OC (stereo not drawn) [Compound I-121]	–	56	–
